{"source": "patent US20210330774A1", "about": "“HERV-K-DERIVED ANTIGENS AS SHARED TUMOR ANTIGENS FOR ANTI-CANCER VACCINE” (CENTRE LEON BERARD, priority 2018, published 2021)", "assay_type_in_all_cases": "cell-based, human", "key": {"CD8+ T cells": {"tested_on": "CD8+ T cells", "experiment": "Dextramer assay after 12-day peptide stimulation of PBMCs from HLA-A2 donors", "details": "for increase in dextramer positive CD8+ T cells, peptide stimulated versus non stimulated: FIG. 4B, 12 different donors, day 12; for ability to elicit a specific CD8+ T cell response: summary statement; for dextramer positive CD8+ T cells: representative plot, day 12, peptide-stimulated PBMCs"}, "[1]": {"tested_on": "T2 cells pulsed with the cognate peptide", "experiment": "ELISPOT for IFN-γ and Granzyme-β of peptide stimulated PBMCs co-cultured with T2 cells", "details": "2.10^5 cells per well, ratio 10:1 with T2 cells, revealed after 24h", "method": "C. Representative histograms of the number of IFN-γ+ and Granzyme-I3+ spots after 12 days stimulation and following 24h of contact with T2 cells pulsed with the cognate peptide.\nPeptide stimulated PBMCs after the 12-day culture were used to perform an ELISPOT assay for IFN-γ and Granzyme-β (FIG. 2C). 2.10^5 cells per well were put in co-culture with T2 cell specific for the peptide of interest in a ratio 10:1."}, "[2]": {"tested_on": "T2 cells pulsed with HERV peptide", "experiment": "Cytotoxicity assay with T2 cells contact (intracellular IFN-γ of CD8+ T cells, FACS)", "details": "for IFN-γ production, number of CD8+ T cells: FIG. 5B, 12 different donors, day 12; for IFN-γ production, percentage of CD8+ T cells (in median): FIG. 3B, 5 different donors, day 12, T2 cells pulsed with cognate peptide", "method": "On day 12 of PBMCs culture, T2 cells were washed in RPMI and resuspended into AIM-V medium (Thermo Fisher Scientific). T2 (SD Cell line) are a lymphoblast cell line deficient in the transporter associated with antigen processing (TAP) protein, and therefore cannot present endogenous peptides on the class I MHC, but can be used to monitor the CTL response to an exogenous antigen of interest in a non-competitive environment. T2 cells were first pulsed with HERV peptide by adding 10 μg/mL of corresponding peptide to 2M T2 cell for 2 hours at 37° C. PBMCs were pooled and counted and put in co-culture with corresponding T2 cells at a respective concentration of 1:5 into a new 96 U-well plate.\nAfter 4 hours of incubation at 37° C., cells from co-culture were washed and pooled in V-well plate according to their staining condition in FACS buffer. Zombie NIR (Biolegend) was used at 1/400 to assess viability. Anti CD3 (PercP, Biolegend) and anti CD8 (FITC, Beckman coulter) antibodies were added 1/10 per condition and left for 25 minutes at 4° C. Cells were washed again and then fixed with fixation/permeabilization solution kit (Invitrogen, Carlasbad, USA) according to the manufacturer's instructions for 15 minutes at room temperature. Cells were washed two times in FACS buffer and kept at 4° c.\nOn day 13, cells were permeabilized with the permeabilization solution kit (Invitrogen) for 5 minutes at room temperature and anti IFN-γ (PE, Biolegend) antibody was added 1/20 to the solution for additional 25 minutes at 4° C. Cells were washed two times and resuspended in 350 μL of FACS buffer before FACS analysis. Analysis was performed on FACS Fortessa (BD) to explore the specific cytotoxicity and degranulation against T2 cells expressing HERV sequences."}, "[3]": {"tested_on": "CD8+ T cells expanded from TNBC and ovarian tumor dilacerate", "experiment": "Dextramer staining of tumor infiltrated lymphocytes (TILs) from TNBC and ovarian cancer", "details": "day 14, FIG. 7", "method": "Tumors were dilacerated in small pieces and digested with collagenase IV and DNAse for 45 minutes. The cells obtained were resuspended in 5% human serum RPMI and distributed in 96 well (5.10^4 cells per well). Anti-CD3/CD28 microbeads (Miltenyi biotech) were added to the well in a ratio of 1:4 with cells in the presence of IL-2 (F.C. 100 IU/ml). TILs were cultured for 14 days by changing medium at day 5, 7, 9 and 12 and the number of the cells was adapted to have 0.5×10^6 cells/ml.\nAt day 14 a dextramer staining was performed (see dextramer assay paragraph) for the 7 peptides of interest (P1 to P7—SEQ ID NO: 1 to 7) and dextramer specific CD8+ T cells were identified by FACS analysis in TNBC (FIG. 7A) and ovarian cancer (FIG. 7B)."}}}
{"sequence": "YLSFIKILL (HERV epitope 4) [P4]", "values": [{"measurement": "increase in dextramer positive CD8+ T cells, peptide stimulated versus non stimulated", "setting": "CD8+ T cells", "value": "significant increase"}, {"measurement": "ability to elicit a specific CD8+ T cell response", "setting": "CD8+ T cells", "value": "able to elicit a specific CD8+ T cell response"}]}
{"sequence": "YAMSNLFSI (HERV epitope 6) [P6]", "values": [{"measurement": "increase in dextramer positive CD8+ T cells, peptide stimulated versus non stimulated", "setting": "CD8+ T cells", "value": "significant increase"}, {"measurement": "ability to elicit a specific CD8+ T cell response", "setting": "CD8+ T cells", "value": "able to elicit a specific CD8+ T cell response"}, {"measurement": "specific IFN-γ and Granzyme-β spots", "setting": "[1]", "value": "specific IFN-γ and Granzyme-β spots"}, {"measurement": "IFN-γ production, number of CD8+ T cells", "setting": "[2]", "value": "moderate number"}, {"measurement": "frequency of specific CD8+ T cells in the tumors", "setting": "[3]", "value": "more frequently represented"}]}
{"sequence": "AMIPKDWPL (HERV epitope 5) [P5]", "values": [{"measurement": "dextramer positive CD8+ T cells", "setting": "CD8+ T cells; FIG. 2A", "value": 34.2, "unit": "%"}, {"measurement": "ability to elicit a specific CD8+ T cell response", "setting": "CD8+ T cells", "value": "able to elicit a specific CD8+ T cell response"}]}
{"sequence": "RLIPYDWEI (epitope 2) [P2]", "values": [{"measurement": "increase in dextramer positive CD8+ T cells, peptide stimulated versus non stimulated", "setting": "CD8+ T cells", "value": "slightly"}, {"measurement": "ability to elicit a specific CD8+ T cell response", "setting": "CD8+ T cells", "value": "able to elicit a specific CD8+ T cell response"}, {"measurement": "IFN-γ production, percentage of CD8+ T cells (in median)", "setting": "[2]", "value": "~5", "unit": "%"}, {"measurement": "IFN-γ production, number of CD8+ T cells", "setting": "[2]", "value": "significant number"}]}
{"sequence": "SMDDQLNQL (HERV epitope 7) [P7]", "values": [{"measurement": "ability to elicit a specific CD8+ T cell response", "setting": "CD8+ T cells", "value": "able to elicit a specific CD8+ T cell response"}]}
{"sequence": "FLQFKTWWI (HERV epitope) [P1]", "values": [{"measurement": "dextramer positive CD8+ T cells", "setting": "CD8+ T cells; FIG. 4A", "value": 0.63, "unit": "%"}, {"measurement": "increase in dextramer positive CD8+ T cells, peptide stimulated versus non stimulated", "setting": "CD8+ T cells", "value": "significant increase"}, {"measurement": "ability to elicit a specific CD8+ T cell response", "setting": "CD8+ T cells", "value": "able to elicit a specific CD8+ T cell response"}, {"measurement": "specific IFN-γ and Granzyme-β spots", "setting": "[1]", "value": "specific IFN-γ and Granzyme-β spots"}, {"measurement": "IFN-γ production, percentage of CD8+ T cells (in median)", "setting": "[2]", "value": "~10", "unit": "%"}, {"measurement": "IFN-γ production, number of CD8+ T cells", "setting": "[2]", "value": "significant number"}, {"measurement": "frequency of specific CD8+ T cells in the tumors", "setting": "[3]", "value": "more frequently represented"}]}
{"sequence": "KLIDCYTFL (epitope 3) [P3]", "values": [{"measurement": "increase in dextramer positive CD8+ T cells, peptide stimulated versus non stimulated", "setting": "CD8+ T cells", "value": "slightly"}, {"measurement": "ability to elicit a specific CD8+ T cell response", "setting": "CD8+ T cells", "value": "able to elicit a specific CD8+ T cell response"}, {"measurement": "IFN-γ production, percentage of CD8+ T cells (in median)", "setting": "[2]", "value": "~5", "unit": "%"}, {"measurement": "IFN-γ production, number of CD8+ T cells", "setting": "[2]", "value": "significant number"}]}
